According to patent US20130101680A1, “RADIOTHERAPY ENHANCER” (priority 2006, published 2013):

Key:
[1] = test system: human pancreatic cancer strain PAN-4; assay: Tumor growth inhibition by S-1, 5-FU or gemcitabine and X-ray, human pancreatic cancer strain PAN-4 in nude mice (Test Example 3); assay type: in vivo, human (in BALB/cA-nu mouse); settings: for radiotherapy enhancing effect (combination with X-ray), in words: combination with X-ray 2 Gy, PAN-4
Method: (b) Preparation of test solution II: 5-fluorouracil (5-FU: Wako Pure Chemical Industries, Ltd.) was dissolved in physiological saline at a concentration of 1.5 mg/mL and sterilized by filtration with a 0.45-micron Millipore filter to obtain a drug solution of 15 mg/kg as 5-FU.
(c) Preparation of test solution 3: Gemcitabine (2′-difluoro-2′,3′-dideoxycytidine: Sigma) was dissolved in physiological saline at a concentration of 5 mg/mL and sterilized by filtration with a 0.45-micron Millipore filter to obtain a drug solution of 50 mg/kg as gemcitabine.
(d) Radiation (X-ray) irradiation method: Local irradiation was performed on a human tumor strain transplanted into the right femoral region of the mouse using MBR-1505R Type 2 X-ray Irradiation System of Hitachi Medical Corporation under an irradiation condition (irradiation position) so that exposure per mouse should be 2 Gy or 5 Gy. To prevent systemic irradiation, mice were placed in a storage box made of lead so that only their right leg should be exposed to radiation.
(e) Test: The human pancreatic cancer strain (PAN-4) subcutaneously transplanted into the back of a BALB/cA-nu mouse and grown beforehand was removed, cut into small fragments of about 2×2 mm^2 with scissors in physiological saline, and subcutaneously transplanted into the right femoral region of 5 or 6-week-old mice of the same strain with a transplantation needle. The mice were prebred for at least 1 to 2 weeks and divided into the control group, the radiation alone group, the drug alone group, and the drug plus radiation group, so that the tumor volume and standard deviation (S.D.) in each group (n=6 per group) should be as uniform as possible. Then, drug administration and X-ray irradiation were initiated. […] For 5-FU and gemcitabine, the drug treatment group was administered intravenously with 0.1 mL of the above-described 5-FU and gemcitabine drug solutions per body weight 10 g using a syringe for intravenous infusion on days 1 and 8. The radiation group was irradiated with 2 Gy or 5 Gy of X-ray in the above-described manner within about 1 hour after administration of each drug solution on day 1, at the start of the test, and on day 8. Tumor-bearing mice in the control group (non-radiation/non-drug treatment group) and the radiation alone group were orally administered with 0.5% HPMC solution alone in the same manner for 14 consecutive days.
By using the above-mentioned numerical formula 1, the tumor volume of each mouse in each group was obtained prior to the start of treatment experiment, on days 3, 5, 8 (1 week later) and 11 during the treatment period, and days 15 (2 weeks later), 18, 22 (3 weeks later), 25, and 29 (4 weeks later) after completion of treatment. For the PAN-4 strain, a relative tumor volume (RTV) to the tumor volume at the start was obtained. The mean tumor growth inhibition rate (%) in each treatment group based on the control group was obtained by using the above-mentioned numerical formula 2 on days 15, at the end of the treatment period, 22, and 29 and shown in Table 4.

[2] = BALB/cA-nu, mouse, in vivo, iv
[3] = No-observed adverse effect level / maximum nontoxic dose in mice; settings: as 5-FU; PAN-4 tumor-transplanted mouse, intravenous on days 1 and 8
[4] = test system: human lung cancer LC-11 strain; assay: X-ray irradiation enhancing effect of cisplatin, human lung cancer LC-11 strain in nude mice (Comparative Example 1); assay type: in vivo, human (in BALB/cA-nu mouse)
Method: (a) Preparation of test solution I: The cisplatin solution (0.5 mg/mL) available from Bristol-Myers Squibb Company was used as it was. 0.1 mL per mouse body weight 10 g was administered for the dose of cisplatin 5 mg/kg, and […] per mouse body weight 10 g was administered for the dose of 7.5 mg/kg.
(b) Radiation (X-ray) irradiation method: Local irradiation was performed on a human tumor strain transplanted into the right femoral region of the mouse using MBR-1505R Type 2 X-ray Irradiation System of Hitachi Medical Corporation under an irradiation condition (irradiation position) so that exposure per mouse should be 2 Gy or 5 Gy. To prevent systemic irradiation, mice were placed in a storage box made of lead so that only their right leg should be exposed to radiation.
(c) Test: The human lung cancer LC-11 strain subcutaneously transplanted into the back of a BALB/cA-nu mouse and grown beforehand were removed, cut into small fragments of about 2×2 mm^2 with scissors in physiological saline, and subcutaneously transplanted into the right femoral region of 5 to 6-week-old mice of the same strain with a transplantation needle. The mice were bred for at least 1 to 2 weeks and divided into the control group, the radiation alone group, the drug alone group, and the drug plus radiation group, so that the tumor volume and standard deviation (S.D.) in each group (n=6 per group) should be as uniform as possible. Then, drug administration and X-ray irradiation were initiated. For the drug treatment group, 0.1 mL per body weight 10 g of a cisplatin solution for the dose of 5 mg/kg or […] per body weight 10 g of this solution for the dose of 7.5 mg/kg was administered into the caudal vein on day 1. The radiation group was irradiated with 2 Gy of X-ray in the above-described manner on day 1, at the start of the test, and on day 8. For tumor-bearing mice in the control group (non-radiation/non-drug treatment group) and the radiation alone group, physiological saline was administered into the caudal vein on day 1.
By using the above-mentioned numerical formula 1, the tumor volume of each mouse in each group was obtained prior to the start of treatment experiment, on days 3, 5, 8 (1 week later) and 11 during the treatment period, and days 15 (2 weeks later), 18, 22 (3 weeks later), 25, and 29 (4 weeks later) after completion of treatment. A relative tumor volume (RTV) to the tumor volume at the start of the test was obtained for each mouse. Then, the mean tumor growth inhibition rate (IR; %) in each treatment group based on the control group was obtained by using the above-mentioned numerical formula 2 on day 15, at the end of the treatment period, and on day 29, at 4 weeks later, and shown in Table 3.

[5] = Gemcitabine 50 mg/kg i.v. days 1 and 8 + X-ray 2 Gy
[6] = Gemcitabine 50 mg/kg i.v. days 1 and 8, alone
[7] = 5-FU 15 mg/kg i.v. days 1 and 8 + X-ray 2 Gy
[8] = 5-FU 15 mg/kg i.v. days 1 and 8, alone
[9] = CDDP 5.0 mg/kg i.v. day 1 + X-ray 2 Gy
[10] = CDDP 5.0 mg/kg i.v. day 1, alone
[11] = CDDP 7.5 mg/kg i.v. day 1 + X-ray 2 Gy
[12] = CDDP 7.5 mg/kg i.v. day 1, alone

## Nc1ccn([C@@H]2O[C@H](CO)[C@@H](O)C2(F)F)c(=O)n1 [Gemcitabine]
[1]; [5]
  Tumor growth inhibition rate (IR) (%) Day 15: 40.0%
  Tumor growth inhibition rate (IR) (%) Day 22: 62.3%
  Tumor growth inhibition rate (IR) (%) Day 29: 63.9%
[1]; Gemcitabine 50 mg/kg i.v. days 1 and 8 + X-ray 2 Gy, listed as gemcitabine
  Tumor growth inhibition rate (IR) (%) Day 15: 40%
[1]; [6]
  Tumor growth inhibition rate (IR) (%) Day 15: 39.8%
  Tumor growth inhibition rate (IR) (%) Day 22: 51.1%
  Tumor growth inhibition rate (IR) (%) Day 29: 51.1%
[1]
  radiotherapy enhancing effect (combination with X-ray), in words: did not show a strong effect of the combination use
[2]
  no-observed adverse effect level: 50 mg/kg

## O=c1[nH]cc(F)c(=O)[nH]1 [5-FU, 5-fluorouracil]
[1]; [7]
  Tumor growth inhibition rate (IR) (%) Day 15: 15.8%
  Tumor growth inhibition rate (IR) (%) Day 22: 27.5%
  Tumor growth inhibition rate (IR) (%) Day 29: 36.9%
[1]; [8]
  Tumor growth inhibition rate (IR) (%) Day 15: 12.4%
  Tumor growth inhibition rate (IR) (%) Day 22: 16.8%
  Tumor growth inhibition rate (IR) (%) Day 29: 29.2%
[1]
  radiotherapy enhancing effect (combination with X-ray), in words: did not show marked effect of the combination use
[3]
  maximum nontoxic dose: 15 mg/kg

## N.N.[Cl][Pt][Cl] [cisplatin]
[4]; [9]
  IR (%) Day 15: 53.8%
  IR (%) Day 29: 46.8%
[4]; [10]
  IR (%) Day 15: 39.9%
  IR (%) Day 29: 45.6%
[4]; [11]
  IR (%) Day 15: 54.6%
  IR (%) Day 29: 66.8%
[4]; [12]
  IR (%) Day 15: 55.8%
  IR (%) Day 29: 60.2%
[4]; cisplatin 5 mg/kg or 7.5 mg/kg with X-ray 2 Gy, LC-11
  radiotherapy enhancing effect (combination with X-ray), in words: did not notably enhance antitumor effects compared with treatment with cisplatin alone
